Data taken from ChEMBL document CHEMBL1150705, “Plant anticancer agents XLIV. Cytotoxic constituents from Stizophyllum riparium” (1987).
Values after ≈ are worked out from the molar mass of the structure shown.

Test system: P388
Assay: Cytotoxicity against mouse P388 cells
Type: functional
Conditions: read-out: ED50 (the source's name)

## CC(=O)C1=CC[C@H]2C3=CCC4=C[C@@H](O)[C@H](O)C[C@]4(C)[C@H]3C[C@@H](O)[C@]12C [STIZOPHYLLIN]
  EC50: 0.07 µg/mL (≈ 0.203 µM)
